Read-outs that look alike come from different tables or passages of the source.
Experiments:
Cannabinoid CB2 Receptor = target: T1, Cannabinoid CB2 Receptor (Homo sapiens, UniProt P34972); assay: Binding assay, cannabinoid CB2 receptor ([3H]-CP-55,940 displacement, SK-N-MC cell membranes); settings: test concentration of 0.2 μM; human CB2 in SK-N-MC membranes; read-out: Cannabinoid CB2 Receptor Binding, percent inhibition
T1 construct: expressed in transfected cells; semi-purified membrane pellet
Method: (§1) Binding Assay for CB1 or CB2 Agonists or Inverse Agonists
(§2) The human CB1 and CB2 receptors were stably expressed in SK-N-MC cells transfected with pcDNA3 CB-1 (human) or pcDNA3 CB-2 (human). The cells were grown in T-180 cell culture flasks under standard cell culture conditions at 37° C. in a 5% CO2 atmosphere. The cells were harvested by trysinization and homogenized in a homogenization buffer (10 mM Tris, 0.2 mM MgCl2, 5 mM KCl, with protease inhibitors aprotinin, leupeptin, pepstatin A and bacitracin) and centrifuged (2000 g). The supernatant was then centrifuged in 2M sucrose (31,300 g) to produce a semi-purified membrane pellet. The pellet was resuspended in homogenization and store at −80° C.
(§3) On the day of the assay, the pellet was thawed on ice and diluted in assay buffer (50 mM Tris-HCl, 5 mM MgCl2, 2.5 mM EDTA, 0.5 mg/mL fatty acid free bovine serum albumin, pH 7.5). The diluted membrane was added with buffer, test compound or standard and the radioligand [H]^3+-CP-55,940 (0.2 nM) to the wells of a 96-well polypropylene plate. Non-specific binding was measured in wells containing 10 uM WIN 55,212. The plate was covered and incubated for 90 minutes at 30° C. The contents were then aspirated onto a Packard Unifilter GF/C filter bottom plate prewet with 0.5% polyethyleneimine. The wells of the polypropylene plate were rinsed and aspirated seven times with a 0.9% saline-0.5% Tween 20 solution. The Unifilter plate was dried, a scintillation cocktail was added to each well and the counts representing binding were quantitated in a TopCount scintillation counter.
For compounds tested, an IC50 binding value was obtained from percent inhibition studies in which various test concentrations were used. The binding value (in μM) was calculated by linear regression. For compounds without an IC50 binding value, the percent inhibition (in %) was obtained at a test concentration of 0.2 μM.

Cannabinoid CB1 Receptor = target: T2, Cannabinoid CB1 Receptor (Homo sapiens, UniProt P21554); assay: Binding assay, cannabinoid CB1 receptor ([3H]-CP-55,940 displacement, SK-N-MC cell membranes); settings: for inhibition at 0.2 µM: read-out: Cannabinoid CB1 Receptor Binding, percent inhibition
T2 construct: expressed in transfected cells; semi-purified membrane pellet
Method: as §1, §2
as §3, with “The diluted membrane was added with buffer, test compound or standard and the radioligand [H]^3+-CP-55,940 (0.2 nM) to the wells of a 96-well polypropylene plate. Non-specific binding was measured in wells containing 10 uM WIN 55,212.” left out
For compounds tested, an IC50 binding value was obtained from percent inhibition studies in which various test concentrations were used. The binding value (in μM) was calculated by linear regression.

[1] = test concentration of 0.2 μM, human CB1 in SK-N-MC membranes

T2 sequence (P21554 whole entry): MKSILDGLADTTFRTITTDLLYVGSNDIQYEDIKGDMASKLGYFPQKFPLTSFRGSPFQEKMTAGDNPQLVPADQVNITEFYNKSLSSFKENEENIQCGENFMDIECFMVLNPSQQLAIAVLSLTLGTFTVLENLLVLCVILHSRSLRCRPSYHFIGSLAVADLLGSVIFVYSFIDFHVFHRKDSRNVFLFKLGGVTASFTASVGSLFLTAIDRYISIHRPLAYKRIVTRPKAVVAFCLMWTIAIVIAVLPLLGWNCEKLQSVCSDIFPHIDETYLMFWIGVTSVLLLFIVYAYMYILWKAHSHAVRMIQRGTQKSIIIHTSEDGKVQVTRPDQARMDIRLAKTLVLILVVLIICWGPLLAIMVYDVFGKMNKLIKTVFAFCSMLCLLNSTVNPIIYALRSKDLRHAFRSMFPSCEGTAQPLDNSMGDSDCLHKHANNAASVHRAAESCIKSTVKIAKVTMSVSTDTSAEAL
T1 sequence (P34972 whole entry): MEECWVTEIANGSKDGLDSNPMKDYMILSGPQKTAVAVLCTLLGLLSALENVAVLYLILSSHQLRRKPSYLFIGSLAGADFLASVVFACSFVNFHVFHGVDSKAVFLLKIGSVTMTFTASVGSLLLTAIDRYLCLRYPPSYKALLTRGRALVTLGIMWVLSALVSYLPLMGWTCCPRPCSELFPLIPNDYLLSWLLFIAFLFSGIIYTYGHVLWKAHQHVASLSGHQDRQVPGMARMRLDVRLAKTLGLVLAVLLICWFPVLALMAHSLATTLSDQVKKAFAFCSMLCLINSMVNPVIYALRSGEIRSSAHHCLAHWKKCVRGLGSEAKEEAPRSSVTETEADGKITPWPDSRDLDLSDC

SMILES	inhibition at 0.2 µM (Cannabinoid CB2 Receptor) [%]	IC50 (Cannabinoid CB1 Receptor) [nM]	inhibition at 0.2 µM (Cannabinoid CB1 Receptor; [1]) [%]	inhibition at 0.2 µM (Cannabinoid CB1 Receptor) [%]
O=C(NN1CCCCC1)c1nn(-c2ccc(Cl)cc2Cl)c2c1COC/C2=C\c1ccsc1 [Cpd 43, (7Z)-1-(2,4-dichloro-phenyl)-7-thiophen-3-ylmethylene-1,4,6,7-tetrahydro-pyrano[4,3-c]pyrazole-3-carboxylic acid piperidin-1-ylamide]	19	30	83	
O=C(NN1CCCCCC1)c1nn(-c2ccc(Cl)cc2Cl)c2c1COC/C2=C\c1ccsc1 [Cpd 44, (7Z)-1-(2,4-dichloro-phenyl)-7-thiophen-3-ylmethylene-1,4,6,7-tetrahydro-pyrano[4,3-c]pyrazole-3-carboxylic acid azepan-1-ylamide]	16	20	86	
O=C(NN1CC2CCCC2C1)c1nn(-c2ccc(Cl)cc2Cl)c2c1COC/C2=C\c1ccsc1 (stereo not shown) [Cpd 45, (7Z)-1-(2,4-dichloro-phenyl)-7-thiophen-3-ylmethylene-1,4,6,7-tetrahydro-pyrano[4,3-c]pyrazole-3-carboxylic acid (hexahydro-cyclopenta[c]pyrrol-2-yl)-amide]	19	20	84	
CC1CCCC(C)N1NC(=O)c1nn(-c2ccc(Cl)cc2Cl)c2c1COC/C2=C\c1ccsc1 (stereo not shown) [Cpd 46, (7Z)-1-(2,4-dichloro-phenyl)-7-thiophen-3-ylmethylene-1,4,6,7-tetrahydro-pyrano[4,3-c]pyrazole-3-carboxylic acid (2,6-dimethyl-piperidin-1-yl)-amide]	20		68	
O=C(NN1CCCC1)c1nn(-c2ccc(Cl)cc2Cl)c2c1COC/C2=C\c1ccsc1 [Cpd 47, (7Z)-1-(2,4-dichloro-phenyl)-7-thiophen-3-ylmethylene-1,4,6,7-tetrahydro-pyrano[4,3-c]pyrazole-3-carboxylic acid pyrrolidin-1-ylamide]	9	30	70	
O=C(N[C@H](CO)c1ccccc1)c1nn(-c2ccc(Cl)cc2Cl)c2c1COC/C2=C\c1ccsc1 [Cpd 48, (7Z)-1-(2,4-dichloro-phenyl)-7-thiophen-3-ylmethylene-1,4,6,7-tetrahydro-pyrano[4,3-c]pyrazole-3-carboxylic acid [(1S)-2-hydroxy-1-phenyl-ethyl]-amide]	17		36	
C[C@@H](NC(=O)c1nn(-c2ccc(Cl)cc2Cl)c2c1COC/C2=C\c1ccc(Cl)s1)c1ccccc1 [Cpd 49, (7Z)-7-(5-chloro-thiophen-2-ylmethylene)-1-(2,4-dichloro-phenyl)-1,4,6,7-tetrahydro-pyrano[4,3-c]pyrazole-3-carboxylic acid [(R)-1-phenyl-ethyl]-amide]	10	20	84	
C[C@H](NC(=O)c1nn(-c2ccc(Cl)cc2Cl)c2c1COC/C2=C\c1ccc(Cl)s1)C1CCCCC1 [Cpd 50, (7Z)-7-(5-chloro-thiophen-2-ylmethylene)-1-(2,4-dichloro-phenyl)-1,4,6,7-tetrahydro-pyrano[4,3-c]pyrazole-3-carboxylic acid [(S)-1-cyclohexyl-ethyl]-amide]	2		34	
C[C@H](NC(=O)c1nn(-c2ccc(Cl)cc2Cl)c2c1COC/C2=C\c1ccc(Cl)s1)c1ccccc1 [Cpd 51, (7Z)-7-(5-chloro-thiophen-2-ylmethylene)-1-(2,4-dichloro-phenyl)-1,4,6,7-tetrahydro-pyrano[4,3-c]pyrazole-3-carboxylic acid [(S)-1-phenyl-ethyl]-amide]	15		48	
C[C@@H](NC(=O)c1nn(-c2ccc(Cl)cc2Cl)c2c1COC/C2=C\c1ccc(Cl)s1)C1CCCCC1 [Cpd 52, (7Z)-7-(5-chloro-thiophen-2-ylmethylene)-1-(2,4-dichloro-phenyl)-1,4,6,7-tetrahydro-pyrano[4,3-c]pyrazole-3-carboxylic acid [(R)-1-cyclohexyl-ethyl]-amide]	21	9	88	
O=C(NN1CCCCCC1)c1nn(-c2ccc(Cl)cc2Cl)c2c1COC/C2=C\c1ccc(Cl)s1 [Cpd 53, (7Z)-7-(5-chloro-thiophen-2-ylmethylene)-1-(2,4-dichloro-phenyl)-1,4,6,7-tetrahydro-pyrano[4,3-c]pyrazole-3-carboxylic acid azepan-1-ylamide]	10	10	83	
O=C(NN1CCCCC1)c1nn(-c2ccc(Cl)cc2Cl)c2c1COC/C2=C\c1ccc(Cl)s1 [Cpd 54, (7Z)-7-(5-chloro-thiophen-2-ylmethylene)-1-(2,4-dichloro-phenyl)-1,4,6,7-tetrahydro-pyrano[4,3-c]pyrazole-3-carboxylic acid piperidin-1-ylamide]	13	20	78	
CC1CCCC(C)N1NC(=O)c1nn(-c2ccc(Cl)cc2Cl)c2c1COC/C2=C\c1ccc(Cl)s1 (stereo not shown) [Cpd 55, (7Z)-7-(5-chloro-thiophen-2-ylmethylene)-1-(2,4-dichloro-phenyl)-1,4,6,7-tetrahydro-pyrano[4,3-c]pyrazole-3-carboxylic acid (2,6-dimethyl-piperidin-1-yl)-amide]	11		65	
O=C(NN1CC2CCCC2C1)c1nn(-c2ccc(Cl)cc2Cl)c2c1COC/C2=C\c1ccc(Cl)s1 (stereo not shown) [Cpd 56, (7Z)-7-(5-chloro-thiophen-2-ylmethylene)-1-(2,4-dichloro-phenyl)-1,4,6,7-tetrahydro-pyrano[4,3-c]pyrazole-3-carboxylic acid (hexahydro-cyclopenta[c]pyrrol-2-yl)-amide]	0	40	74	
O=C(NN1CCCC1)c1nn(-c2ccc(Cl)cc2Cl)c2c1COC/C2=C\c1ccc(Cl)s1 [Cpd 57, (7Z)-7-(5-chloro-thiophen-2-ylmethylene)-1-(2,4-dichloro-phenyl)-1,4,6,7-tetrahydro-pyrano[4,3-c]pyrazole-3-carboxylic acid pyrrolidin-1-ylamide]	15		67	
O=C(N[C@H](CO)c1ccccc1)c1nn(-c2ccc(Cl)cc2Cl)c2c1COC/C2=C\c1ccc(Cl)s1 [Cpd 58, (7Z)-7-(5-chloro-thiophen-2-ylmethylene)-1-(2,4-dichloro-phenyl)-1,4,6,7-tetrahydro-pyrano[4,3-c]pyrazole-3-carboxylic acid [(S)-2-hydroxy-1-phenyl-ethyl]-amide]	0		59	
CC(NC(=O)c1nn(-c2ccc(Cl)cc2Cl)c2c1COC/C2=C\c1ccc(Cl)s1)c1ccccn1 (stereo not shown) [Cpd 60, (7Z)-7-(5-chloro-thiophen-2-ylmethylene)-1-(2,4-dichloro-phenyl)-1,4,6,7-tetrahydro-pyrano[4,3-c]pyrazole-3-carboxylic acid (1-pyridin-2-yl-ethyl)-amide]	7		58	
C[C@@H](NC(=O)c1nn(-c2ccc(Cl)cc2Cl)c2c1COC/C2=C\c1ccc(Cl)s1)c1ccccn1 [Cpd 61, (7Z)-7-(5-chloro-thiophen-2-ylmethylene)-1-(2,4-dichloro-phenyl)-1,4,6,7-tetrahydro-pyrano[4,3-c]pyrazole-3-carboxylic acid [(R)-1-pyridin-2-yl-ethyl]-amide]	9.5	50	84	
C[C@@H](NC(=O)c1nn(-c2ccc(Cl)cc2Cl)c2c1COC/C2=C\c1ccc(Cl)o1)C1CCCCC1 [Cpd 62, (7Z)-7-(5-chloro-furan-2-ylmethylene)-1-(2,4-dichloro-phenyl)-1,4,6,7-tetrahydro-pyrano[4,3-c]pyrazole-3-carboxylic acid [(R)-1-cyclohexyl-ethyl]-amide]	17	30		74

— US20100069341A1, “TETRAHYDRO-PYRANOPYRAZOLE CANNABINOID MODULATORS” (priority 2005, published 2010)
